According to patent publication EP0446748A2, “Use of perylenedyes for the preparation of write, print or copying materials” (priority 1990, dated 1991):

Experiment: Solubility of the dyes in organic solvent, determined after one week of the solution in contact with the solid dye with occasional shaking
Type: physicochemical
Conditions: CHCl₃, 20 °C; 10080 min
Source text: Die Perylenfarbstoffe werden aus technischen Perylen-3,4:9,10-tetracarbonsäurebisanhydrid (2,55 mmol), dem entsprechenden primären Amin oder dem Aminhydrochlorid (6 mmol) und Imidazol (5 g) dargestellt und werden entsprechend der Literatur gereinigt (siehe z.B. Chem. Ber. 118 4641 (1985) und Chem. Ber. 121 225 (1988)). Die Angaben beziehen sich auf die Darstellung von hochreine Farbstoffen. Die Perylenfarbstoffe der allgemeinen Formel I mit R¹ = R² = Hexyl, Dodecyl, Octadecyl, Cycloalkyl bis zu Cyclopentadecyl und sec-Alkyl bis 1-Hexylheptyl sind in Chem. Ber. 121 225 (1988) beschriebn. Die Löslichkeiten der Farbstoffe sind nach einer Woche der Lösung mit dem festen Farbstoff bei gelegentlichem Umschütteln bestimmt worden.

For `CCCN1C(=O)c2ccc3c4ccc5c6c(ccc(c7ccc(c2c37)C1=O)c64)C(=O)N(CCC)C5=O` [N,N'-Di(1-Propyl)perylen-3,4:9,10-bis(dicarboximid)], the “Löslichkeit (CHCl₃/20^oC)” value was 5,3 mg/100 ml.
With `CCCCN1C(=O)c2ccc3c4ccc5c6c(ccc(c7ccc(c2c37)C1=O)c64)C(=O)N(CCCC)C5=O` [N,N'-Di(1-butyl)perylen-3,4:9,10-bis(dicarboximid)] the “Löslichkeit (CHCl₃/20^oC)” value was 8,9 mg/100 ml.

Compared with `CCCCCN1C(=O)c2ccc3c4ccc5c6c(ccc(c7ccc(c2c37)C1=O)c64)C(=O)N(CCCCC)C5=O` [N,N'-Di(1-pentyl)perylen-3,4:9,10-bis(dicarboximid)], `CCCCCCCCCN1C(=O)c2ccc3c4ccc5c6c(ccc(c7ccc(c2c37)C1=O)c64)C(=O)N(CCCCCCCCC)C5=O` [N,N'-Di(n-nonyl)perylen-3,4:9,10-bis(dicarboximid)] is lower in “Löslichkeit (CHCl₃/20^oC)” value: 47 mg/100 ml for the first, 11 mg/100 ml for the second.

Same assay, conditions: CHCl₃, temperature not given; 10080 min

Going from `CCCCCCCCCCCCCCCCN1C(=O)c2ccc3c4ccc5c6c(ccc(c7ccc(c2c37)C1=O)c64)C(=O)N(CCCCCCCCCCCCCCCC)C5=O` [N,N'-Di(n-hexadecyl)perylen-3,4:9,10-bis(dicarboximid)] to `CCCCCCCCCCCCCCN1C(=O)c2ccc3c4ccc5c6c(ccc(c7ccc(c2c37)C1=O)c64)C(=O)N(CCCCCCCCCCCCCC)C5=O` [N,N'-Di(n-tetradecyl)perylen-3,4:9,10-bis(dicarboximid)], the “Löslichkeit (CHCl₃)” value falls from 6.0 mg/100 ml to 5.4 mg/100 ml.

For `CCCCCCCCCCCCCCCCCCN1C(=O)c2ccc3c4ccc5c6c(ccc(c7ccc(c2c37)C1=O)c64)C(=O)N(CCCCCCCCCCCCCCCCCC)C5=O` [N,N'-Di(n-octadecyl)perylen-3,4:9,10-bis(dicarboximid)], the “Löslichkeit (CHCl₃)” value was 1,8 mg/100 ml.

With `O=C1c2ccc3c4ccc5c6c(ccc(c7ccc(c2c37)C(=O)N1C1CCCCCCCCCCCCCCC1)c64)C(=O)N(C1CCCCCCCCCCCCCCC1)C5=O` [N,N'-Dicyclohexadecylperylen-3,4:9,10-bis(dicarboximid)] the “Löslichkeit (CHCl₃)” value was 0.56 g/100ml.

Same assay, conditions: n-Heptan, 20 °C; 10080 min

First: CCCCCCCC(CCCCCCC)N1C(=O)c2ccc3c4ccc5c6c(ccc(c7ccc(c2c37)C1=O)c64)C(=O)N(C(CCCCCCC)CCCCCCC)C5=O [N,N'-Di(1-heptyloctyl)perylen-3,4:9,10-bis(dicarboximid)]
Second: CCCCCCCCC(CCCCCCCC)N1C(=O)c2ccc3c4ccc5c6c(ccc(c7ccc(c2c37)C1=O)c64)C(=O)N(C(CCCCCCCC)CCCCCCCC)C5=O [N,N'-Di(1-octylnonyl)perylen-3,4:9,10-bis(dicarboximid)]
The “Löslichkeit (n-Heptan/20^oC)” value of the first is higher: 0.59 g/100ml for the first, 0.30 g/100ml for the second.

Same assay, conditions: n-Heptan, temperature not given; 10080 min

First: CCCCCCCCCCC(CCCCCCCCCC)N1C(=O)c2ccc3c4ccc5c6c(ccc(c7ccc(c2c37)C1=O)c64)C(=O)N(C(CCCCCCCCCC)CCCCCCCCCC)C5=O [N,N'-Di(1-decylundecyl)Perylen-3,4:9,10-bis(dicarboximid)]
Second: CCCCCCCCCC(CCCCCCCCC)N1C(=O)c2ccc3c4ccc5c6c(ccc(c7ccc(c2c37)C1=O)c64)C(=O)N(C(CCCCCCCCC)CCCCCCCCC)C5=O [N,N'-Di(1-nonyldecyl)perylen-3,4:9,10-bis(dicarboximid)]
The “Löslichkeit (n-Heptan)” value of the first is lower: 4.8 g/100 ml for the first, 35 g/100 ml for the second.

In the case of `CCCCCCCCCCCCCCCCC(CCCCCCCCCCCCCCCC)N1C(=O)c2ccc3c4ccc5c6c(ccc(c7ccc(c2c37)C1=O)c64)C(=O)N(C(CCCCCCCCCCCCCCCC)CCCCCCCCCCCCCCCC)C5=O` [N,N'-Di(1-hexadecylheptadecyl)perylen-3,4:9,10-bis(dicarboximid)], the “Löslichkeit (n-Heptan)” value is reported as 0.13 g/100 ml.

Going from `CCCCCCCCCCCCC(CCCCCCCCCCCC)N1C(=O)c2ccc3c4ccc5c6c(ccc(c7ccc(c2c37)C1=O)c64)C(=O)N(C(CCCCCCCCCCCC)CCCCCCCCCCCC)C5=O` [N,N'-Di(1-dodecyltridecyl)perylen-3,4:9,10-bis(dicarboximid)] to `CCCCCCCCCCCCCCCCCCC(CCCCCCCCCCCCCCCCCC)N1C(=O)c2ccc3c4ccc5c6c(ccc(c7ccc(c2c37)C1=O)c64)C(=O)N(C(CCCCCCCCCCCCCCCCCC)CCCCCCCCCCCCCCCCCC)C5=O` [N,N'-Di(1-octadecylnonadecyl)perylen-3,4:9,10-bis(dicarboximid)], the “Löslichkeit (n-Heptan)” value falls from 67 mg/100 ml to 26 mg/100 ml.
